Data: ChEMBL document CHEMBL3885861, “Open TG-GATES”

Species on record: Rattus norvegicus
Experiment: Open TG-GATES - Regimen: Single
Assay type: toxicity, organism-based, Sprague-Dawley
Design: regimen Single, gender Male, age 6 weeks
Conditions: in vivo, po, 100 mg/kg, route gavage, dose level Middle; for KIDNEY_L / KIDNEY_R / KIDNEY_TOTAL: tissue Kidney; for LIVER: tissue Liver; for ALP / ALT / AST / BUN / CRE / DBIL / GLC / IP / K / PL / RALB / TBIL / TC / TG / TP / gamma-GTP: tissue Plasma

Question: For `CC(C)OC(=O)C(C)(C)Oc1ccc(C(=O)c2ccc(Cl)cc2)cc1` [FENOFIBRATE], which Bas (3 h, tissue Blood) is on record?
Answer: The Bas was 0.2%.

Question: And the Eos (3 h, tissue Blood)?
Answer: The Eos was 1%.

Question: And the Fbg (3 h, tissue Blood)?
Answer: Its Fbg is 289.2 mg/dL.

Question: What about the Ht (3 h, tissue Blood) of the same molecule?
Answer: The Ht was 41%.

Question: And the MCHC (3 h, tissue Blood)?
Answer: The MCHC was 32.3%.

Question: What about the Mono (3 h, tissue Blood) of the same molecule?
Answer: Its Mono is 3%.

Question: What about the RBC (3 h, tissue Blood) of the same molecule?
Answer: The RBC was 610 x10_4/ul.

Question: What about the Ret (3 h, tissue Blood) of the same molecule?
Answer: Its Ret is 9.8%.

Question: What about the KIDNEY_L (3 h) of the same molecule?
Answer: Its KIDNEY_L is 0.8 g.

Question: And the KIDNEY_R (3 h)?
Answer: Its KIDNEY_R is 0.8 g.

Question: What about the KIDNEY_TOTAL (3 h) of the same molecule?
Answer: The KIDNEY_TOTAL was 1.6 g.

Question: And the LIVER (3 h)?
Answer: Its LIVER is 8.2 g.

Question: And the ALP (3 h)?
Answer: Its ALP is 1478.6 IU/L.

Question: And the ALT (3 h)?
Answer: Its ALT is 46.6 IU/L.

Question: And the AST (3 h)?
Answer: The AST was 79 IU/L.

Question: And the BUN (3 h)?
Answer: The BUN was 9.8 mg/dL.

Question: And the CRE (3 h)?
Answer: The CRE was 0.2 mg/dL.

Question: What about the DBIL (3 h) of the same molecule?
Answer: Its DBIL is 0.012 mg/dL.

Question: What about the GLC (3 h) of the same molecule?
Answer: Its GLC is 181.2 mg/dL.

Question: What about the IP (3 h) of the same molecule?
Answer: The IP was 10.1 mg/dL.

Question: And the K (3 h)?
Answer: The K was 4.3 meq/L.

Question: What about the PL (3 h) of the same molecule?
Answer: The PL was 145.8 mg/dL.

Question: And the RALB (3 h)?
Answer: Its RALB is 2.6 g/dL.

Question: What about the TBIL (3 h) of the same molecule?
Answer: Its TBIL is 0.052 mg/dL.

Question: What about the TC (3 h) of the same molecule?
Answer: Its TC is 79.6 mg/dL.

Question: What about the TG (3 h) of the same molecule?
Answer: Its TG is 46.4 mg/dL.

Question: What about the TP (3 h) of the same molecule?
Answer: Its TP is 5.4 g/dL.

Question: And the gamma-GTP (3 h)?
Answer: Its gamma-GTP is 1.4 IU/L.

Question: What about the Bas (6 h, tissue Blood) of the same molecule?
Answer: Its Bas is 0.2%.

Question: What about the Eos (6 h, tissue Blood) of the same molecule?
Answer: The Eos was 0.4%.

Question: What about the Fbg (6 h, tissue Blood) of the same molecule?
Answer: Its Fbg is 261.4 mg/dL.

Question: And the Ht (6 h, tissue Blood)?
Answer: Its Ht is 39.8%.

Question: What about the MCHC (6 h, tissue Blood) of the same molecule?
Answer: The MCHC was 32.3%.

Question: And the Mono (6 h, tissue Blood)?
Answer: Its Mono is 2.8%.

Question: And the RBC (6 h, tissue Blood)?
Answer: The RBC was 591.2 x10_4/ul.

Question: And the Ret (6 h, tissue Blood)?
Answer: The Ret was 10.3%.

Question: And the KIDNEY_L (6 h)?
Answer: The KIDNEY_L was 0.8 g.

Question: And the KIDNEY_R (6 h)?
Answer: Its KIDNEY_R is 0.8 g.

Question: What about the KIDNEY_TOTAL (6 h) of the same molecule?
Answer: The KIDNEY_TOTAL was 1.6 g.

Question: What about the LIVER (6 h) of the same molecule?
Answer: Its LIVER is 7.5 g.

Question: What about the ALT (6 h) of the same molecule?
Answer: The ALT was 51.2 IU/L.

Question: What about the AST (6 h) of the same molecule?
Answer: The AST was 85.8 IU/L.

Question: And the BUN (6 h)?
Answer: Its BUN is 8.4 mg/dL.

Question: What about the CRE (6 h) of the same molecule?
Answer: The CRE was 0.2 mg/dL.

Question: What about the DBIL (6 h) of the same molecule?
Answer: The DBIL was 0.01 mg/dL.

Question: And the GLC (6 h)?
Answer: The GLC was 173 mg/dL.

Question: And the IP (6 h)?
Answer: Its IP is 9.8 mg/dL.

Question: And the K (6 h)?
Answer: Its K is 4.2 meq/L.

Question: And the PL (6 h)?
Answer: Its PL is 130.8 mg/dL.

Question: And the RALB (6 h)?
Answer: The RALB was 2.5 g/dL.

Question: What about the TBIL (6 h) of the same molecule?
Answer: Its TBIL is 0.054 mg/dL.

Question: And the TC (6 h)?
Answer: Its TC is 69.6 mg/dL.

Question: And the TG (6 h)?
Answer: The TG was 37.2 mg/dL.

Question: What about the TP (6 h) of the same molecule?
Answer: The TP was 5.2 g/dL.

Question: And the gamma-GTP (6 h)?
Answer: The gamma-GTP was 1 IU/L.

Question: And the Bas (9 h, tissue Blood)?
Answer: The Bas was 0%.

Question: What about the Eos (9 h, tissue Blood) of the same molecule?
Answer: The Eos was 1%.

Question: And the Fbg (9 h, tissue Blood)?
Answer: The Fbg was 292.2 mg/dL.

Question: What about the Ht (9 h, tissue Blood) of the same molecule?
Answer: The Ht was 39.2%.

Question: What about the Lym (9 h, tissue Blood) of the same molecule?
Answer: The Lym was 69.2%.

Question: What about the MCHC (9 h, tissue Blood) of the same molecule?
Answer: Its MCHC is 32.7%.

Question: And the Mono (9 h, tissue Blood)?
Answer: The Mono was 2.6%.

Question: And the RBC (9 h, tissue Blood)?
Answer: The RBC was 604 x10_4/ul.

Question: And the Ret (9 h, tissue Blood)?
Answer: Its Ret is 10.3%.

Question: And the KIDNEY_L (9 h)?
Answer: The KIDNEY_L was 0.8 g.

Question: What about the KIDNEY_R (9 h) of the same molecule?
Answer: Its KIDNEY_R is 0.8 g.

Question: And the KIDNEY_TOTAL (9 h)?
Answer: Its KIDNEY_TOTAL is 1.6 g.

Question: What about the LIVER (9 h) of the same molecule?
Answer: The LIVER was 7 g.

Question: And the ALP (9 h)?
Answer: The ALP was 1457.4 IU/L.

Question: What about the ALT (9 h) of the same molecule?
Answer: The ALT was 45 IU/L.

Question: What about the AST (9 h) of the same molecule?
Answer: The AST was 83.2 IU/L.

Question: What about the BUN (9 h) of the same molecule?
Answer: The BUN was 6.8 mg/dL.

Question: And the CRE (9 h)?
Answer: The CRE was 0.2 mg/dL.

Question: What about the DBIL (9 h) of the same molecule?
Answer: The DBIL was 0.008 mg/dL.

Question: And the GLC (9 h)?
Answer: The GLC was 159.8 mg/dL.

Question: And the IP (9 h)?
Answer: Its IP is 9.6 mg/dL.

Question: And the K (9 h)?
Answer: Its K is 3.9 meq/L.

Question: And the PL (9 h)?
Answer: The PL was 125 mg/dL.

Question: And the RALB (9 h)?
Answer: Its RALB is 2.4 g/dL.

Question: What about the TBIL (9 h) of the same molecule?
Answer: Its TBIL is 0.054 mg/dL.

Question: What about the TC (9 h) of the same molecule?
Answer: Its TC is 70.8 mg/dL.

Question: What about the TG (9 h) of the same molecule?
Answer: Its TG is 29.2 mg/dL.

Question: What about the TP (9 h) of the same molecule?
Answer: The TP was 5.3 g/dL.

Question: What about the gamma-GTP (9 h) of the same molecule?
Answer: Its gamma-GTP is 1 IU/L.

Question: What about the Bas (24 h, tissue Blood) of the same molecule?
Answer: Its Bas is 0.2%.

Question: What about the Eos (24 h, tissue Blood) of the same molecule?
Answer: Its Eos is 0.8%.

Question: And the Fbg (24 h, tissue Blood)?
Answer: Its Fbg is 259.6 mg/dL.

Question: What about the Ht (24 h, tissue Blood) of the same molecule?
Answer: The Ht was 38.8%.

Question: What about the MCHC (24 h, tissue Blood) of the same molecule?
Answer: Its MCHC is 32.8%.

Question: And the Mono (24 h, tissue Blood)?
Answer: The Mono was 3.2%.

Question: And the RBC (24 h, tissue Blood)?
Answer: The RBC was 582.4 x10_4/ul.

Question: What about the Ret (24 h, tissue Blood) of the same molecule?
Answer: Its Ret is 8.5%.

Question: And the KIDNEY_L (24 h)?
Answer: Its KIDNEY_L is 0.8 g.

Question: What about the KIDNEY_R (24 h) of the same molecule?
Answer: The KIDNEY_R was 0.8 g.

Question: What about the KIDNEY_TOTAL (24 h) of the same molecule?
Answer: Its KIDNEY_TOTAL is 1.7 g.

Question: What about the LIVER (24 h) of the same molecule?
Answer: Its LIVER is 9.8 g.

Question: What about the ALP (24 h) of the same molecule?
Answer: Its ALP is 1873.8 IU/L.

Question: And the ALT (24 h)?
Answer: The ALT was 46.4 IU/L.

Question: What about the AST (24 h) of the same molecule?
Answer: The AST was 74.4 IU/L.

Question: And the BUN (24 h)?
Answer: Its BUN is 13 mg/dL.

Question: And the CRE (24 h)?
Answer: The CRE was 0.2 mg/dL.

Question: And the DBIL (24 h)?
Answer: The DBIL was 0.012 mg/dL.

Question: What about the GLC (24 h) of the same molecule?
Answer: The GLC was 187.8 mg/dL.

Question: And the IP (24 h)?
Answer: Its IP is 8.9 mg/dL.

Question: What about the K (24 h) of the same molecule?
Answer: The K was 4.4 meq/L.

Question: And the PL (24 h)?
Answer: The PL was 122.6 mg/dL.

Question: What about the RALB (24 h) of the same molecule?
Answer: Its RALB is 2.5 g/dL.

Question: What about the TBIL (24 h) of the same molecule?
Answer: The TBIL was 0.04 mg/dL.

Question: And the TC (24 h)?
Answer: Its TC is 68.6 mg/dL.

Question: What about the TG (24 h) of the same molecule?
Answer: The TG was 36.4 mg/dL.

Question: And the TP (24 h)?
Answer: The TP was 5.3 g/dL.
